In patent publication US11497749B2, “Mitoflavoscins: targeting flavin-containing enzymes eliminates cancer stem cells (CSCS) by inhibiting mitochondrial respiration” (LUNELLA BIOTECH, INC., priority 2017, dated 2022):
Like-named read-outs stand apart in the source and are kept apart here.

Assays:
[1] = tested on: MCF7 cells; settings: various concentrations, 1, 3 or 5 days, normalized to vehicle
Description: To confirm that the observed increase in ECAR corresponded to L-lactate production, L-lactate levels were measured directly using the ISCUS^flex Microdialysis Analyser (M Dialysis Inc., MA, USA). Culture media were collected, centrifuged and analysed with the ISCUS^flex Microdialysis Analyzer after treatment of MCF7 cells with various concentrations of DPI for 1, 3 or 5 days. Calibration of the instrument was performed by samples provided by the manufacturer. Then L-lactate levels were measured and normalized to samples taken from MCF7 cells treated with vehicle only.

[2] = tested on: hTERT-BJ1 cells; settings: five days of incubation, up to 100 nM
Description: (§3) The inventors used a Sulphorhodamine (SRB) assay, which is based on the measurement of cellular protein content. After treatment for five days in 96-well plates, cells were fixed with 10% trichloroacetic acid (TCA) for 1 hour in the cold room, and were dried overnight at room temperature. Then, cells were incubated with SRB for 15 min, washed twice with 1% acetic acid, and air dried for at least 1 hour. Finally, the protein-bound dye was dissolved in a 10 mM Tris, pH 8.8 solution and read using the plate reader at 540-nm.

[3] = tested on: MCF7 cells; experiment: cells; settings: Homo sapiens
Description: Cells were grown for 5 days and maintained in a humidified incubator at 37° C. at an atmospheric pressure in 5% (v/v) carbon dioxide/air.

[4] = tested on: MCF7 cells; settings: five days of treatment, concentration as high as 33 nM
Description: as §3

[5] = tested on: MCF7 cells
Text: (§1) A number of methods may be used for functional validation, including, for example, metabolic flux analysis, mammosphere assays, viability assays, and antibiotic (anti-bacterial and/or anti-fungal) activity. The inventors determined real-time oxygen consumption rates (OCR) and extracellular acidification rates (ECAR) in MCF7 cells using the Seahorse Extracellular Flux (XF96) analyzer (Seahorse Bioscience, Mass., USA). Briefly, MCF7 cells were maintained in DMEM supplemented with 10% FBS (fetal bovine serum), 2 mM GlutaMAX, and 1% Pen-Strep. 8,000 cells per well were seeded into XF96-well cell culture plates, and incubated overnight at 37° C. in a 5% CO2 humidified atmosphere. The next day, cells were washed in pre-warmed XF assay media (for OCR measurement, XF assay media was supplemented with 10 mM glucose, 1 mM Pyruvate and adjusted at pH 7.4). Cells were then maintained in 175 μL/well of XF assay media at 37° C., in a non-CO2 incubator for 1 hour. During incubation, 25 μL of 80 mM glucose, 9 μM oligomycin, 1M 2-deoxyglucose (for ECAR measurement) and 25 μL of 10 μM oligomycin, 9 μM FCCP, 10 μM rotenone, 10 μM antimycin A (for OCR measurement) in XF assay media was loaded into the injection ports of the XFe-96 sensor cartridge. During the experiment, the instrument injected these inhibitors into the wells at a given time point, while ECAR/OCR was measured continuously. ECAR and OCR measurements were normalized by protein content (Sulphorhodamine B assay). Data sets were analyzed by XFe-96 software, using one-way ANOVA and Student's t-test calculations. All experiments were performed in triplicate.
(§2) Given DPI's high potency, inventors assessed its ability to rapidly affect cell metabolism.

[6] = tested on: MCF7 cells; settings: 24 hours
Description: Inventors hypothesized that possible mechanism by which DPI inhibits CSC propagation is by inducing mitochondrial reactive oxygen species (ROS) production. To test this hypothesis, inventors determined the effects of DPI on mitochondrial ROS production, over the range of 5 to 50 nM. Briefly, production of superoxide by mitochondria was measured by the MitoSOX™ Red mitochondrial superoxide indicator (ThermoFisher Sci., M36008). 3×10^5 MCF7 cells/well were plated in 6-well plates in complete media supplemented with 10% heat-inactivated FBS. The next day, cells were treated with DPI (5, 50 nM) or Rotenone (0.5 μM) for 24 hours. Vehicle alone (DMSO) for control cells were processed in parallel. At least 30,000 events were recorded by FACS using Fortessa (BD Bioscience). Three biological replicates (repeats) were analyzed in independent experiments.

[7] = tested on: MCF7 cells; experiment: cells
Text: as §1
It should be appreciated that numerous methods are known for functional validation, and that persons of skill in the art may select one or more depending on the validation needs (e.g., other assays that measure or approximate mitochondrial function).
as §2
To assess the reversibility of DPI's effects, MCF7 cells were first subjected to DPI treatment for 24 hours. Then, DPI was removed (“wash-out”) and the cells were cultured for an additional 24 hours, to allow recovery.
The inventors also examined the effects of long-term treatment with DPI on cells.

[8] = tested on: MCF7 cells; experiment: cells; settings: Homo sapiens, MCF7, 120 h, read-out: IC-50, reduction of CD44+/CD24- cell population
Description: Inventors examined specific cell surface markers, namely fluorescent antibody probes directed against CD44 and CD24. The CD44+/CD24-cell population represents a CSC-enriched fraction. 1×10^5 MCF7 cells were plated in 6-well plates in complete media supplemented with 10% heat-inactivated FBS. […] Vehicle alone (DMSO) control cells were processed in parallel. Briefly, 30,000-50,000 live cells, as identified by 7-AAD dye staining, were analyzed for CD24/CD44 expression. Inventors used CD24 (IOTest CD24-PE, Beckman Coulter) and CD44 (APC mouse Anti-Human CD44, BD Pharmingen) antibodies for fluorescence activated cell sorting (FACS) analysis, using the BD LSR Fortessa (BD Bioscience). […] One-way ANOVA was used with Bonferroi's multiple comparisons test.

[9] = tested on: MCF7 cells; settings: 10 nM, 1 month culture
[10] = tested on: C. elegans; settings: during response to oxidative stress; cited from earlier work
[11] = tested on: MCF7 cells; settings: 500 nM DPI, 72 hours
Description: Assays were performed according to the manufacturer's protocol.

## c1ccc2c(c1)[I+]c1ccccc1-2 [DPI, Diphenyleneiodonium chloride]
[1]
  L-lactate production: nearly doubling the amount of lactate produced
[2]
  toxic effects / cell viability in normal fibroblasts (hTERT-BJ1): little or no toxic effects
[3]; MCF7, 120 h, read-out: IC-50, CSC propagation (mammosphere formation)
  IC50: 0.00323 µM
[3]; MCF7, read-out: inhibition of mammosphere formation
  inhibition at 0.005 µM: > 50%
[4]
  toxicity / cell viability in MCF7 cells: little or no toxicity
[5]; 2.5 nM, 24 hours of treatment
  effect on ECAR: little or no effect
[5]; 10 nM, 24 hours of treatment
  increase of glycolysis: ~2 fold
[5]; one-hour treatment, 5 to 100 nM
  increase of glycolysis: effectively doubled
[6]; 5 nM, relative to vehicle
  mitochondrial ROS production: failed to induce any detectable mitochondrial ROS production
[6]; 50 nM, versus positive control Rotenone
  mitochondrial ROS production: induced the same amount of mitochondrial ROS as 500 nM Rotenone
[7]; 2.5 nM, 24-hour treatment
  effect on OCR: little or no effect
[7]; 5 nM, 24-hour treatment
  reduction of basal respiration: ~50%
[7]; 10 nM, 24-hour treatment
  decrease of basal respiration rate: ~85%
  reduction in ATP production (ATP-linked respiration): > 90%
[7]; 1 month culture with 10, 25 and 50 nM
  inhibition of mitochondrial respiration after long-term treatment: near complete inhibition of respiration
[7]; Homo sapiens, MCF7, 1 h, read-out: IC-50, inhibition of basal respiration
  IC50: 0.05 µM
[8]
  IC50: 0.01 µM
[9]
  morphology and density of the cells: remains unchanged
[10]
  accumulation of lipofuscin (aging-associated marker): prevents the accumulation of lipofuscin
[11]
  cell death (number of attached cells by DNA content): did not significantly induce any cell death
  reduction of ATP levels: > 80%
